Where two headings read alike, the source gives them in different places. Bridges are numbered along the chain shown (N, C = ends). Where no end group is shown, it is not given here.
Experiments:
[1] = system: ETBR; conditions: Rogers et al., Glia 2003, cited from earlier work
[2] = system: Neural stem cells, e.g., HCNA 94/GFPH; test: Neural stem cell differentiation assay (MAP2 immunostaining, DAPI); assay type: cell-based
Procedure: It was previously known that it was possible to modulate cells, other than neurons, via C3aR. Accordingly, C3aR antagonists blocked modulation via the receptor and C3aR agonists stimulated the receptor. To evaluate the effect of C3aR agonists on neural stem cell differentiation in vitro, a neural stem cell differentiation assay was performed as set out below.
Neural stem cells, e.g., HCNA 94/GFPH, were cultured with a C3aR agonist (C3a) at a concentration of either 10 nM or 100 nM for three to ten days in the presence and absence of a known C3aR antagonist, SB290157 (Ames at al., J. Immunol. 166: 6341-6348, 2001), at a concentration of 5-10 μM, administered to the culture either prior to or at the same time as the C3aR agonist. The number of cells that differentiated into neurons was measured by immunostaining with antibodies against MAP2 (Sigma) and visualized using 4′,6-Diamidino-2-phenylindole (DAPI) staining. A compound is regarded as a stimulator of neural stem cell differentiation into neurons if it stimulates differentiation into neurons at a rate at least 25% greater than control cells (cultured in the presence of medium alone). The effect of the C3aR agonist on neural stem cell differentiation was not blocked by SB290157 (see Table 5 below). Thus, SB290157 was not effective in inhibited neuronal cell differentiation at the concentrations tested.

[3] = target: T1, C3aR (Mus musculus, UniProt O09047); test: Basal neurogenesis in mice treated with a C3aR antagonist (BrdU/Dcx/NeuN immunostaining); assay type: in vivo, wild-type C57BL/6 mice; conditions: for number of Dcx^posBrdU^pos cells, lower compared to control mice: 500 μg/mouse twice daily for 10 days
T1 construct: wild-type C57BL/6 mice (8 week old male; n=12) were injected with a nonpeptide antagonist of the C3aR; from tissue; host or cells: living wild-type C57BL/6 mice; read-out in brain (SVZ, dentate gyrus, olfactory bulb)
T1 sequence (O09047 1-477): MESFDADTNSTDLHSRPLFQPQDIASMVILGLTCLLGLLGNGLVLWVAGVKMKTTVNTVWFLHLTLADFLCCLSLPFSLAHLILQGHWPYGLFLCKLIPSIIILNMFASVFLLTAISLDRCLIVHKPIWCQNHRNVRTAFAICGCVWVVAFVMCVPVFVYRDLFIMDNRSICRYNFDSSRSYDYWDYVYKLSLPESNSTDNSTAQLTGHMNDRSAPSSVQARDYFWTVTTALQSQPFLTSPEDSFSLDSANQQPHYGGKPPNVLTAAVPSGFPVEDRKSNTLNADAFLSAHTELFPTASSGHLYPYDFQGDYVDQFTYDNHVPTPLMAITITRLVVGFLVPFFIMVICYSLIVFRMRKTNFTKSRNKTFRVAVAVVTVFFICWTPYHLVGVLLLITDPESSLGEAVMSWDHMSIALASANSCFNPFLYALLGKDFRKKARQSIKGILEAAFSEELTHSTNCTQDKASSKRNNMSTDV
Procedure: To assess whether signaling through the C3aR plays a role in basal neurogenesis, wild-type C57BL/6 mice (8 week old male; n=12) were injected with a nonpeptide antagonist of the C3aR, SB290157 (Calbiochem, San Diego, Calif., USA; 500 μg/mouse; Ames et al., J. Immunol. 166:6341-6348, 2001) diluted in PBS and DMSO (1.16% v/v) twice daily or vehicle for 10 days. Control mice (n=10) were given PBS and DMSO (1.16% v/v). During the first 7 days, all the mice also received bromodeoxyuridine (BrdU) (Sigma-Aldrich; 200 mg/kg). On day 10 after the first injection, the mice were deeply anesthetized and perfused.
Mouse brains were embedded in paraffin, cut into 8-μm sections, and stained with hematoxylin and erytrosin. For immunohistochemical evaluation, the sections were deparaffinized, permeabilized in 0.01 M citric acid (pH 6.0), heated twice for 5 min each in a microwave oven for antigen retrieval, and blocked with 0.1% BSA and 0.05% Triton-X-100 in PBS. Negative control was performed by omitting the primary antibody, unless stated otherwise.
Newly formed neurons were visualized by staining with biotinylated mouse anti-NeuN monoclonal antibody (Chemicon, Temecula, Calif., USA; 1:100) followed by Cy3-conjugated streptavidin (Sigma-Aldrich; 1:100) or Alexa633-conjugated streptavidin (Molecular Probes; 1:500) in combination with FITC-conjugated rat anti-BrdU antibody (Accurate Chemical, Westbury, N.Y., USA; 1:75). NeuN^pos BrdU^pos cells were counted in the penumbra on 2-3 sections per mouse. BrdU^pos cells were also counted in the SVZ. The sections were further stained with mouse anti-BrdU antibody (DAKO; 1:100) and Alexa 568 conjugated goat anti-mouse Ig (Molecular Probes; 1:500). BrdU^pos and NeuN^posBrdU^pos cells were counted in one hemisphere on 4-12 sections 160 μm apart/region in the granular layer of the olfactory bulb (bregma 3.2 mm to 4.28 mm) and dentate gyrus subgranular zone (bregma −1.34 mm to −3.64 mm).
Migrating neural progenitor cells were detected with goat anti-doublecortin (Dcx) antibody (Santa Cruz Biotechnology, Santa Cruz, Calif., USA; 1:50) followed by Alexa488-conjugated donkey anti-goat Ig (Molecular Probes; 1:100). Sections were further stained with mouse anti-BrdU antibody. BrdU^pos and Dcx^posBrdU^pos cells were counted in one hemisphere on 4-12 sections 160 μm apart/region in the SVZ (bregma 0.14 mm to 1.1 mm), the granular layer of the olfactory bulb (bregma 3.2 mm to 4.28 mm), and dentate gyrus subgranular zone (bregma −1.34 mm to −3.64 mm).
Proliferating migrating neuroblasts (Dcx^posBrdU^pos), newly formed neurons (NeuN^posBrdU^pos) and BrdU^pos cells were counted in the two principal sites of adult neurogenesis, SVZ and the dentate gyrus subgranular zone of the hippocampus, as well as in the olfactory bulb, the final destination for the neuroblasts originating in SVZ under basal conditions. In all three regions, the number of Dcx^posBrdU^pos cells was reduced in mice that received the C3aR antagonist. […] Also, the fraction of these cells among the BrdU^pos cells was reduced in the C3aR antagonist-treated mice: 19.0±1.1 vs. 26.7±1.7%, P<0.005 in the olfactory bulb; 13.1±0.6 vs. 17.3±0.8%, P<0.0005 in the dentate gyrus subgranular zone; and 26.4±0.8 vs. 31.4±1.2%, P<0.005 in the SVZ. […] The fraction of these cells among the BrdU^pos cells was reduced in the C3aR antagonist treated mice: 1.2±0.1 vs. 1.7±0.1%, P<0.005 in the olfactory bulb; 1.7±0.1 vs. 2.3±0.2%, P<0.05 in the dentate gyrus subgranular zone. The number of BrdU^pos cells in any of the regions was not affected by the C3aR antagonist treatment.

Molecule: endothelin 1: endothelin peptide, an ETBR agonist (CSCSSLMDKECVYFCHLDIIW; disulfide 1-15, 3-11; ends not checked; UniProt P05305 53-73, looked up)
- effect on astrocyte hypertrophy ([1]; ETBR agonist administration): leads to astrocyte hypertrophy

Molecule: COc1ccccc1Oc1c(NS(=O)(=O)c2ccc(C(C)(C)C)cc2)nc(-c2ncccn2)nc1OCCO [Bosenthan]
- effect on astrocyte hypertrophy ([1]; ETBR antagonist in CNS trauma): reduced astrocyte hypertrophy

Molecule: NC(N)=NCCC[C@H](NC(=O)COCC(c1ccccc1)c1ccccc1)C(=O)O [SB290157]
- inhibition of the C3aR agonist effect on neural stem cell differentiation ([2]; SB290157 5-10 μM, given prior to or with C3a 10 or 100 nM): not effective
- % of MAP2+ Cells Among All DAPI+ Cells (Mean ± SEM) ([2]; SD290157 5 μM alone, culture medium alone 2.54 ± 0.12): 2.70 ± 0.19%
- number of Dcx^posBrdU^pos cells, lower compared to control mice ([3]; SVZ, P<0.05): 12.5%
- fraction of Dcx^posBrdU^pos cells among the BrdU^pos cells ([3]; SVZ, control 31.4±1.2%, P<0.005): 26.4±0.8%
- number of BrdU^pos cells ([3]; any of the regions (SVZ, dentate gyrus subgranular zone, olfactory bulb)): not affected
- number of Dcx^posBrdU^pos cells, lower compared to control mice ([3]; dentate gyrus subgranular zone, P<0.0005): 27%
- fraction of NeuN^posBrdU^pos cells among the BrdU^pos cells ([3]; dentate gyrus subgranular zone, control 2.3±0.2%, P<0.05): 1.7±0.1%
- fraction of Dcx^posBrdU^pos cells among the BrdU^pos cells ([3]; dentate gyrus subgranular zone, control 17.3±0.8%, P<0.0005): 13.1±0.6%
- reduction in the number of NeuN^posBrdU^pos cells ([3]; olfactory bulb and dentate gyrus subgranular zone, P<0.005): 22-25%
- number of Dcx^posBrdU^pos cells, lower compared to control mice ([3]; olfactory bulb, P<0.0005): 34%
- fraction of NeuN^posBrdU^pos cells among the BrdU^pos cells ([3]; olfactory bulb, control 1.7±0.1%, P<0.005): 1.2±0.1%
- fraction of Dcx^posBrdU^pos cells among the BrdU^pos cells ([3]; olfactory bulb, control 26.7±1.7%, P<0.005): 19.0±1.1%

From patent US20070054325A1, “Materials and methods for screening modulators of neural regeneration” (REGLIA, priority 2005, published 2007)
